Among the test systems are HCC-2998 colon; A549 NSCLC; LOX IMVI melanoma; CCRF-CEM leukemia; SNB-19 CNS; A498 renal; MALME-3M melanoma; EKVX NSCLC; OVCAR-3 ovarian; K-562 leukemia.
What all share (experiment): NCI tumour cell line growth inhibition, 48 h

The structures appear in SMILES notation.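 These data come from cells grown in 96-well plates and exposed to compound for 48 hours at five concentrations. At the GI50, growth is halved. TGI marks complete inhibition of growth.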

Turning to `S=c1nc(-c2cccnc2)[nH][nH]1`, the TGI in the assay on HCC-2998 colon, in the assay on A549 NSCLC, in the assay with LOX IMVI melanoma, in the assay on CCRF-CEM leukemia, in the assay on SNB-19 CNS and with A498 renal was more than 100 µM in each case. The molecule further yielded a TGI with MALME-3M melanoma of more than 100 µM.

Take `c1cc(CNC2C3CCC(C3)C2c2c[nH]c3ccccc23)cc(CNC2C3CCC(C3)C2c2c[nH]c3ccccc23)c1` (configuration not stated): the TGI is 3.34 µM in the assay with EKVX NSCLC; more than 100 µM in the assay on A549 NSCLC; more than 100 µM in the assay on CCRF-CEM leukemia; 2.26 µM in the assay with SNB-19 CNS; 3.45 µM in the assay on MALME-3M melanoma.

Take `Cc1nn(-c2ccccc2)c(-c2ccccc2[N+](=O)[O-])c1CC#N`: the TGI with OVCAR-3 ovarian, in the assay with EKVX NSCLC, in the assay with HCC-2998 colon, in the assay on K-562 leukemia, in the assay on A549 NSCLC and in the assay on LOX IMVI melanoma was more than 100 µM each time. Besides, the TGI in the assay on CCRF-CEM leukemia, in the assay with SNB-19 CNS and in the assay on MALME-3M melanoma was more than 100 µM in each case.

Consider `Cc1cc(=O)oc2cc(O)c(CN(C)CC(=O)O)cc12`, for which the TGI in the assay with EKVX NSCLC, in the assay with HCC-2998 colon, with K-562 leukemia, in the assay on A549 NSCLC, with LOX IMVI melanoma and in the assay with SNB-19 CNS was more than 100 µM each time. The TGI in the assay on A498 renal and in the assay on MALME-3M melanoma was more than 100 µM throughout.

Consider `COc1ccc(/C=C2\C(=O)N(C(=O)Cc3ccccc3)N=C2C)cc1OC`, for which the TGI with OVCAR-3 ovarian, with EKVX NSCLC, with HCC-2998 colon, in the assay with K-562 leukemia, with A549 NSCLC and in the assay on LOX IMVI melanoma was more than 100 µM each time. Further, the TGI in the assay with CCRF-CEM leukemia, with SNB-19 CNS and in the assay with MALME-3M melanoma was more than 100 µM each time.

As to `OCC1OC(n2cnc3c(/C=C(/O)c4ccccc4)ncnc32)C(O)C1O` (configuration not stated), the TGI in the assay on OVCAR-3 ovarian, in the assay on EKVX NSCLC, in the assay on K-562 leukemia, with A549 NSCLC, with LOX IMVI melanoma and with CCRF-CEM leukemia was more than 100 µM each time. Moreover, the figures for the TGI in the assay on SNB-19 CNS, in the assay with A498 renal and in the assay on MALME-3M melanoma were more than 100 µM, more than 91.1 µM and more than 100 µM, respectively.

For `CCOC(=O)[C@H]1Nc2ccc(OC)cc2C2c3ccccc3CC21` (some centres not stated), the TGI in the assay on OVCAR-3 ovarian, with HCC-2998 colon, in the assay with K-562 leukemia, with A549 NSCLC, in the assay on LOX IMVI melanoma and with SNB-19 CNS was more than 100 µM in each case. Moreover, the TGI with A498 renal and in the assay on MALME-3M melanoma was more than 100 µM in each case.

`COc1ccc(Cn2c(Cl)c(/C=C3/C(=O)Nc4ccccc43)c3cc(OC)c(C)cc32)cc1`: the GI50 is 2.3 µM with OVCAR-3 ovarian; 45.5 µM with EKVX NSCLC; 7.86 µM with A549 NSCLC; 14.3 µM in the assay on LOX IMVI melanoma; 4.94 µM with CCRF-CEM leukemia; 4.09 µM in the assay with SNB-19 CNS. Moreover, in the assay on MALME-3M melanoma, the GI50 is 9.44 µM. Moreover, the TGI in the assay with OVCAR-3 ovarian was 5.37 µM; in the assay with EKVX NSCLC, more than 100 µM; in the assay with A549 NSCLC it was more than 100 µM; in the assay on LOX IMVI melanoma, more than 100 µM; with CCRF-CEM leukemia, more than 100 µM; with SNB-19 CNS, more than 100 µM. Moreover, in the assay with MALME-3M melanoma, the TGI was more than 100 µM.

In the case of `Nc1ccc(S(=O)(=O)NCc2nccs2)cc1`, the TGI with OVCAR-3 ovarian is more than 100 µM; in the assay on EKVX NSCLC it was 40.7 µM; in the assay with K-562 leukemia, 82.8 µM; in the assay on A549 NSCLC, 94.3 µM; with LOX IMVI melanoma, 41.7 µM; in the assay with CCRF-CEM leukemia, 38.2 µM. The results for the TGI in the assay with SNB-19 CNS and in the assay on A498 renal were more than 100 µM and 33.4 µM, respectively.

Regarding `COC(=O)C1=C(C(=O)OC)SC(=C(Cl)C(=S)Sc2ccccc2N)S1`, the GI50 in the assay on OVCAR-3 ovarian was 28.1 µM; in the assay with K-562 leukemia it was 68.7 µM; with A549 NSCLC it was 22.3 µM; in the assay on LOX IMVI melanoma it was 17.8 µM; in the assay on SNB-19 CNS, 32 µM; with MALME-3M melanoma it was more than 100 µM. Moreover, the TGI is 64.6 µM in the assay on OVCAR-3 ovarian; more than 100 µM with K-562 leukemia; 59.2 µM in the assay on A549 NSCLC; 40.3 µM in the assay on LOX IMVI melanoma; more than 100 µM in the assay on SNB-19 CNS; more than 100 µM in the assay on MALME-3M melanoma.

`CC(C)Oc1cc(O)c2c(c1)OCC=C2CCC(=O)O`: the TGI in the assay with OVCAR-3 ovarian is more than 100 µM; in the assay with EKVX NSCLC it was 91.2 µM; in the assay on K-562 leukemia it was more than 100 µM; in the assay with A549 NSCLC, more than 100 µM; in the assay on LOX IMVI melanoma, more than 100 µM; in the assay on CCRF-CEM leukemia, 43.3 µM. Moreover, the figures for the TGI in the assay with SNB-19 CNS and with A498 renal were more than 100 µM and 56.6 µM, respectively.

As to `Oc1ccccc1-c1nc2c3ccccc3c3ccccc3c2[nH]1`, the GI50 was 11.1 µM with OVCAR-3 ovarian; 4.33 µM with EKVX NSCLC; 4.13 µM in the assay with HCC-2998 colon; 6.08 µM with A549 NSCLC; 3.48 µM in the assay with LOX IMVI melanoma; 4.6 µM with CCRF-CEM leukemia. The values for the GI50 in the assay on SNB-19 CNS, in the assay on A498 renal and in the assay on MALME-3M melanoma were 12.4 µM, 12.2 µM and 16.2 µM, respectively. For the same molecule, the TGI came to 23.1 µM in the assay on OVCAR-3 ovarian; 20.6 µM in the assay on EKVX NSCLC; 12.1 µM in the assay with HCC-2998 colon; 17.9 µM in the assay with A549 NSCLC; 12 µM in the assay with LOX IMVI melanoma; 16.8 µM with CCRF-CEM leukemia. Further, the TGI in the assay on SNB-19 CNS came out at 24.9 µM; with A498 renal it was 24.6 µM; with MALME-3M melanoma, 31.7 µM.

On to `OC12CC/C(=N/OCc3ccccc3)CC1c1ccccc12` (configuration not stated), for which the TGI with OVCAR-3 ovarian, with EKVX NSCLC, in the assay with HCC-2998 colon, in the assay on K-562 leukemia, in the assay on A549 NSCLC and with LOX IMVI melanoma was more than 100 µM in each case. The TGI in the assay with CCRF-CEM leukemia, in the assay on SNB-19 CNS and in the assay on MALME-3M melanoma was more than 100 µM each time.

With `CCN(CC)CCCC(C)Nc1c2ccc(C)cc2nc2ccc(OC)cc12` (configuration not stated), the GI50 with OVCAR-3 ovarian was 1.75 µM; with EKVX NSCLC, 2.35 µM; in the assay on K-562 leukemia it was 2.92 µM; with A549 NSCLC, 0.6 µM; in the assay with LOX IMVI melanoma it was 1.38 µM; with CCRF-CEM leukemia, 1.82 µM. In addition, the GI50 with SNB-19 CNS was 4.78 µM; in the assay with A498 renal, 0.863 µM; in the assay with MALME-3M melanoma, 1.73 µM. The TGI amounted to 4.14 µM with OVCAR-3 ovarian; 16 µM with EKVX NSCLC; 10.6 µM in the assay on K-562 leukemia; 3.25 µM with A549 NSCLC; 3.7 µM in the assay on LOX IMVI melanoma; 9.9 µM in the assay with CCRF-CEM leukemia. Also, the TGI is 35.7 µM with SNB-19 CNS, 13.8 µM in the assay with A498 renal and 3.53 µM in the assay with MALME-3M melanoma.

The values are drawn from PubChem BioAssay (NCI).
